Measured values taken from ChEMBL document CHEMBL1127970, “Dual metalloprotease inhibitors. IV. Utilization of thiazepines and thiazines as constrained peptidomimetic surrogates in mercaptoacyl dipeptides” (Bioorg Med Chem Lett, 1994).

Experiments:
[1] = test system: Rattus norvegicus; assay: Effective dose required to inhibit angiotensin 1(AI) induced pressor response in normotensive rats when administered intravenously; assay type: functional; settings: iv
[2] = biological target: T1, Angiotensin-converting enzyme (Rattus norvegicus, UniProt P47820); assay: In vitro inhibition of angiotensin converting enzyme isolated from rat lung.; settings: read-out: I50
T1 sequence (P47820 whole entry): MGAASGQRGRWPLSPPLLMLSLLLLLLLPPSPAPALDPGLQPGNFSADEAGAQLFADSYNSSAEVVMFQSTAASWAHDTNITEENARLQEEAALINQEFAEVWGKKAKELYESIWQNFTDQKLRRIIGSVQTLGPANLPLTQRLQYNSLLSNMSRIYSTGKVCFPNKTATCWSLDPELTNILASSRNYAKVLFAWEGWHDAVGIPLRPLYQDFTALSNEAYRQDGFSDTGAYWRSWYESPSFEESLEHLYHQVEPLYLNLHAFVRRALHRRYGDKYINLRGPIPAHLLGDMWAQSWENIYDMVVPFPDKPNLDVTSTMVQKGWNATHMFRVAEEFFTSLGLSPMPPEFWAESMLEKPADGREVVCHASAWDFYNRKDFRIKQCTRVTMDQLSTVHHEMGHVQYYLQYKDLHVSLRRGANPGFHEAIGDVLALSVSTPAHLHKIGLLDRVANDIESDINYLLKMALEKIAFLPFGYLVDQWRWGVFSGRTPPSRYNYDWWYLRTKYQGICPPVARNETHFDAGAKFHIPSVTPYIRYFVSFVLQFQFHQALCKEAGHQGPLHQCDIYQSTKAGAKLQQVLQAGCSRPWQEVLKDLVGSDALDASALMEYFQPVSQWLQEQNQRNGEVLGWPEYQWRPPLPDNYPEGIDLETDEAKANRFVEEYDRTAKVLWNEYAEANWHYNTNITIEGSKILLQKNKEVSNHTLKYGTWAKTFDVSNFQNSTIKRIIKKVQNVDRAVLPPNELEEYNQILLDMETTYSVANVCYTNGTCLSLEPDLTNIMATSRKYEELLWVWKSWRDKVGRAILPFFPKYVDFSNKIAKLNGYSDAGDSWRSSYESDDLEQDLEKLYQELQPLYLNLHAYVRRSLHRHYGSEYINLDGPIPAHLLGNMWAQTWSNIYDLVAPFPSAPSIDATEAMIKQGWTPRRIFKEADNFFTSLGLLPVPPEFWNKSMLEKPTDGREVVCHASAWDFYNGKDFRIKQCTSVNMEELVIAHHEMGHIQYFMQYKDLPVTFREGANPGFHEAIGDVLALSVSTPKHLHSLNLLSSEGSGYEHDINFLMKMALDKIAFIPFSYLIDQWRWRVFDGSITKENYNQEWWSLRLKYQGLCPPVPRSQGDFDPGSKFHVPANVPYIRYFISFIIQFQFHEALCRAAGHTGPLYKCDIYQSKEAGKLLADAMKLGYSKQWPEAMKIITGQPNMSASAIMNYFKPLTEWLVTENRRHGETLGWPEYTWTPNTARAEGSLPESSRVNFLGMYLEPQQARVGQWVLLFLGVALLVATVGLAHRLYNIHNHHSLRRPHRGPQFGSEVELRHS

[3] = biological target: T2, Neprilysin (Rattus norvegicus, UniProt P07861); assay: In vitro inhibition of Neutral Endopeptidase isolated from rat kidney.; settings: read-out: I50
T2 sequence (P07861 whole entry): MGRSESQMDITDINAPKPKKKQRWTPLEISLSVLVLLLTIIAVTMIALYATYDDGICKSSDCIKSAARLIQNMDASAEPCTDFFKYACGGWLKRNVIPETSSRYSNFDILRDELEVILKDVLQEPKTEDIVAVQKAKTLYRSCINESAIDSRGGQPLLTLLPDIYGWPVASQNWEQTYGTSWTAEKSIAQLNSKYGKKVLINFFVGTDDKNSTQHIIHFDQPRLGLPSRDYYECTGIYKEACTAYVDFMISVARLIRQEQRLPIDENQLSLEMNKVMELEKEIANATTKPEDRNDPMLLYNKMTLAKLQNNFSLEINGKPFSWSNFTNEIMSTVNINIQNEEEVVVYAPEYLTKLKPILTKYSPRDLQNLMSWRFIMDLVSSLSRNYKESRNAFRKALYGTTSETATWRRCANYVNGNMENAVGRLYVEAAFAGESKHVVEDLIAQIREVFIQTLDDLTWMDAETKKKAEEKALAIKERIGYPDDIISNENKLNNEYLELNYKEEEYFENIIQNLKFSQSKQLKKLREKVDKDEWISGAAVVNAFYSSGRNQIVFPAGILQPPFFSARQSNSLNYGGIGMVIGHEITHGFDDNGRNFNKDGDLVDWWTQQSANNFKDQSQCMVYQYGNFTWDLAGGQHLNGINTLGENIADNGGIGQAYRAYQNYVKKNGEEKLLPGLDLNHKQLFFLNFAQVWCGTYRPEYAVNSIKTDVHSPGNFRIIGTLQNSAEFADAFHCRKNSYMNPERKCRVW

SMILES | IC50 [2] [nM] | IC50 [3] [nM] | ED50 [1] [µmol/kg]
O=C(O)CN1C(=O)[C@@H](NC(=O)[C@@H](S)Cc2ccccc2)CSc2ccccc21 | 13 | – | 0.14
O=C(O)CN1CCSC[C@H](NC(=O)[C@@H](S)Cc2ccccc2)C1=O | 67 | 244 | 4.4
O=C(O)CN1C[C@H](c2ccccc2)SC[C@H](NC(=O)[C@@H](S)Cc2ccccc2)C1=O | 290 | 2040 | –
O=C(O)CN1CSCC[C@H](NC(=O)[C@@H](S)Cc2ccccc2)C1=O | 61 | 535 | –
O=C(O)CN1CCSC[C@H](NC(=O)[C@@H](CS)Cc2ccccc2)C1=O | 100 | – | –
CC1(C)CSC[C@H](NC(=O)[C@@H](S)Cc2ccccc2)C(=O)N1CC(=O)O | 13.8 | – | –
O=C(O)CN1C(=O)[C@@H](NC(=O)[C@@H](CS)Cc2ccccc2)CSC[C@H]1c1ccccc1 | 22 | – | –
O=C(O)CN1C[C@@H](c2ccccc2)SC[C@H](NC(=O)[C@@H](CS)Cc2ccccc2)C1=O | 33 | – | > 1.5
O=C(O)CN1C(=O)[C@@H](NC(=O)[C@@H](CS)Cc2ccccc2)CSc2ccccc21 | 17 | 1 | 3.96
C[C@@H]1SCC[C@H](NC(=O)[C@@H](S)Cc2ccccc2)C(=O)N1CC(=O)O | 11.7 | – | –
O=C(O)CN1C[C@@H](c2ccccc2)SC[C@H](NC(=O)[C@@H](S)Cc2ccccc2)C1=O | 40 | 99 | < 0.15

The next lines start with results.

IC50 [2] [nM] | IC50 [3] [nM] | SMILES | ED50 [1] [µmol/kg]
29 | – | O=C(O)CN1C(=O)[C@@H](NC(=O)[C@@H](S)Cc2ccccc2)CSC[C@H]1c1ccccc1 | 0.49
25 | – | O=C(O)CN1C(=O)[C@@H](NC(=O)[C@@H](S)Cc2ccccc2)CS[C@@H]1c1ccccc1 | 2.75
123 | 126 | O=C(O)CN1C(=O)[C@H](NC(=O)[C@@H](CS)Cc2ccccc2)CS[C@@H]1c1ccccc1 | –
20 | – | O=C(O)CN1C(=O)[C@H](NC(=O)[C@@H](S)Cc2ccccc2)CS[C@@H]1c1ccccc1 | 0.21
167 | 2.5 | O=C(O)CN1C(=O)[C@@H](NC(=O)[C@@H](CS)Cc2ccccc2)CS[C@@H]1c1ccccc1 | –
73 | – | O=C(O)CN1C(=O)[C@@H](NC(=O)[C@@H](S)Cc2ccccc2)CS[C@H]1c1ccccc1 | –
115 | 2.7 | O=C(O)CN1C(=O)[C@@H](NC(=O)[C@@H](CS)Cc2ccccc2)CS[C@H]1c1ccccc1 | –
